Several values for one entry are separate records, joined by “and”; a condition that tells them apart may be missing. Equal entries are not always repeated.
Assays:
[1] = Aqueous solubility determination by HPLC; assay type: physicochemical; settings: neutral water, vs TET
Procedure: Briefly, each tested compound (10 mg) was dissolved in 10 mL of CH3OH, and the standard solution (0.5 mL) was used to determine the wavelength of maximum absorbance by HPLC. The solution was diluted as necessary, and the solubility was determined by linear regression with R^2 > 0.999. Each tested compound (5 mg) was ultrasound dissolved in 3 mL of pure water for 1 h at room temperature, and the mixture was then […] at 3000 rpm for 15 min. The saturated supernatants were determined by HPLC at the wavelength of the maximum absorption, and the absorbances were obtained. The solubility was calculated according to the standard curve.

[2] = Live/dead FDA/PI double staining, HUVEC; assay type: cell-based; settings: human, HUVEC cells, read-out: Viable cell percentage
Procedure: HCT-15 or HUVEC cells were cultured in six-well plates for 24 h. The cells were washed with PBS and incubated with medium containing 0.625, 1.25, 2.5, 5, and 10 μM of 16 for 48 h. Afterwards, the medium was replaced, and the cells were washed twice with PBS, resuspended in the solution containing 100 μL FDA (0.02 mg/mL, Sigma, St. Louis, MO, USA) and 30 μL PI (0.02 mg/mL, Sigma, St. Louis, MO, USA), and treated in the dark at room temperature for 10 min. The cells were imaged with a fluorescence microscope (Nikon ECLIPSE TE2000-U, Tokyo, Japan).

HCT-15 cells [3] = assay: Colony formation assay; assay type: cell-based, human; settings: HCT-15, 0.625 μM, 10 d
Procedure: HCT-15 cells were diluted in 2 mL of culture medium and plated in six-well plates at 37 °C in 5% CO2. After an overnight incubation, compound 16 (0.625, 1.25, 2.5, 5, and 10 μM) was added, and the cells were cultured for 10 d. Afterwards, the medium was replaced. The cells were washed by cold PBS and fixed with 4% paraformaldehyde. Finally, the cell colonies were stained with a 1% crystal violet solution for 20 min. The plates were recorded, and the colonies were counted digitally using ImageJ software with customized macros.

[4] = test system: human breast cancer cells (MCF-7); assay: MTT antiproliferative assay, MCF-7; assay type: cell-based
Procedure: (§1) Human lung cancer cell (A549,), human umbilical vein endothelial cells (HUVECs,), human colon cancer cell lines (HCT-15), human breast cancer cells (MCF-7), human liver cancer cells (HepG2), human pancreatic cancer cells (BxPC-3), and human hepatic cell line (L-02) were obtained from the Sichuan University. A549, HUVECs, and L-02 were cultured in DMEM medium (high glucose, HyClone, GE Healthcare, Sydney, Australia). Human colon cancer cell lines HCT-15, human pancreatic cancer cells […] BxPC-3 were cultured in RPMI-1640. Human breast cancer cells MCF-7 and human liver cancer cells HepG2 were cultured in MEM medium. All the mediums, including 10% fetal bovine serum (FBS, HyClone, GE Healthcare, Sydney, Australia) and 1% ampicillin/streptomycin, were used to culture the above cells at 37 °C in a humidified atmosphere (5% CO2 and 95% air).
(§2) The antiproliferative activity of the title compounds was determined using the MTT (3-(4,5-dimethylthiazol-2-yl)-2,5-diphenyltetrazolium bromide, Sigma-Aldrich, Saint Louis, MO, USA) assay on different cells. Cells lines were seeded into 96-well plates at a density of 2000 to 6000 cells/well. DMSO was used to dissolve the test compounds, and TET was used as a positive control. After 24 h, the test compounds were added at different concentrations (0.625, 1.25, 2.5, 5, 10, and 20 μM) and incubated at 37 °C for 72 h. MTT was added to each well at a final concentration of 0.5 mg/mL and incubated at 37 °C for 4 h. Then, 150 μL of DMSO was added to each well to dissolve the formazan crystals. The absorbance was measured at 570 nm by a microplate reader (ELX800UV, Bio-Tek, Windoski, VT, USA). All measurements were repeated at least three times under the same conditions. Graphpad Prism 8.0 was used to calculate the IC50 values.

[5] = test system: human normal hepatocyte cells (L-02); assay: MTT toxicity assay, normal hepatocytes L-02; assay type: cell-based; settings: 72 h, normal hepatocyte L-02 (toxicity), read-out: Antiproliferative Activity (IC50/μM) L-02
Procedure: as §1, §2

HCT-15 cells [6] = assay: Transwell invasion assay; assay type: cell-based, human; settings: HCT-15, transwell, 5 and 10 μM, 20 h
Procedure: The cell motility inhibitory effect of 16 on HCT-15 cells was evaluated by invasion assay. Briefly, cells were harvested and resuspended in serum-free medium that contained 0.625, 1.25, 2.5, 5, and 10 μM of 16, and were seeded into the upper wells of a transwell chamber (Millicell, […] pore size, 12-mm diameter Millipore) coated with 50 μL of Matrigel (1:3 dilution in serum-free medium, Corning/BD Biosciences) at a density of 2 × 10^5 cells/mL. Meanwhile, 600 μL medium containing 10% FBS and corresponding samples were added into the lower chambers. Then, 20 h later, the invading cells were fixed with 4% paraformaldehyde and stained with 0.2% crystal violet for 30 min. Afterwards, the chambers were washed twice with PBS and left to dry. Cells which had migrated to the lower chamber of the transwell were photographed using a digital camera with an inverted microscope (Nikon ECLIPSE TE2000-U, Tokyo, Japan), and the crystal violet positive cells were counted.

HUVECs = assay: Tube formation assay on Matrigel; assay type: cell-based, human; settings: HUVEC on Matrigel, 5 μM, 8 h
Procedure: Briefly, a 96-well plate was pre-coated with 50 μL Matrigel per well and incubated at 37 °C for 30 min. Then, 100 μL of HUVECs suspension (2 × 10^4) were added to each well. The cells were cultured with 1.25, 2.5, and 5 μM of 16 for 8 h. Subsequently, the tube formation was observed, randomly selected, and recorded by an inverted microscope.

Increase of aqueous solubility compared to TET [1]: > 5 fold and 5 fold | IC50 ([4]; 72 h): 1.46 ± 0.13 µM | IC50 ([4]; Homo sapiens, MCF7, 72 h): < 1.5 µM
Compound: COc1cc(NC(=O)[C@@H]2CCCN2)c2cc1Oc1ccc(cc1)C[C@H]1c3cc(c(OC)cc3CCN1C)Oc1c(OC)c(OC)cc3c1[C@H](C2)N(C)CC3 [Compound 16, 14-N-(L-proline)-tetrandrine]
viability at 48 h, 5 µM ([2]; 5 μM): 1.9% | viability at 48 h, 10 µM ([2]; 10 μM): 0.1% | Colony formation (HCT-15 cells [3]): very few colonies | IC50 [5]: > 20 µM | Invaded cells (HCT-15 cells [6]): almost no cancer cells were observed | Tube formation (HUVECs): almost no tube structure

— paper PMC9268013, “Design, Synthesis, and Biological Evaluation of N14-Amino Acid-Substituted Tetrandrine Derivatives as Potential Antitumor Agents against Human Colorectal Cancer” (Molecules, 2022)
